From EPA's ToxRefDB 2

Legend:
mouse [1] = settings: Carcinogenicity, other, Oral, Feed, dose end: 104 week, group: systemic
rat [2] = settings: Combined chronic toxicity/carcinogenicity, sprague dawley, Oral, Feed, dose end: 104 week, group: systemic
rat [3] = settings: Subchronic oral toxicity in rodents, sprague dawley, Feed, dose end: 13 week, group: systemic
dog [4] = settings: Subchronic oral toxicity in nonrodent, beagle, Capsule, dose end: 93 day, group: systemic
dog [5] = settings: Chronic toxicity, beagle, Oral, Capsule, dose end: 52 week, group: systemic
rat [6] = settings: Subchronic dermal toxicity, sprague dawley, Topical, dose end: 13 week, group: systemic, systemic / pathology microscopic / liver / inflammation + systemic / pathology microscopic / liver / necrosis + systemic / in life …
rat [7] = settings: Carcinogenicity, fischer, Oral, Gavage/Intubation, dose end: 103 week, group: systemic
mouse [8] = settings: Sub-acute repeat dose toxicity; b6c3f1; Oral; Gavage/Intubation; dose end: 16 day; group: systemic; systemic / pathology gross / stomach / erosion + systemic / pathology gross / stomach / ulcer + systemic / pathology microscopic / stomach…
rat [9] = settings: Sub-acute repeat dose toxicity; fischer; Oral; Gavage/Intubation; dose end: 16 day; group: systemic; systemic / pathology microscopic / stomach / hyperkeratosis + systemic / pathology microscopic / stomach / hyperplasia + systemic / …
rat [10] = settings: Subchronic oral toxicity in rodents, fischer, Gavage/Intubation, dose end: 13 week, group: systemic
mouse [11] = settings: Carcinogenicity; b6c3f1; Oral; Gavage/Intubation; dose end: 103 week; group: systemic; systemic / pathology microscopic / stomach / acanthosis + systemic / pathology microscopic / stomach / hyperkeratosis + systemic / pathology…
rat [12] = settings: Prenatal developmental toxicity study, sprague dawley, Oral, Gavage/Intubation, dose end: 15 GD
mouse [13] = settings: Subchronic oral toxicity in rodents, b6c3f1, Gavage/Intubation, dose end: 13 week, group: systemic
mouse [14] = settings: Subchronic oral toxicity in rodents, b6c3f1, Feed, dose end: 13 week, group: systemic
rat [15] = settings: Subchronic oral toxicity in rodents, fischer, Feed, dose end: 13 week, group: systemic, systemic / in life observation / body weight / body weight gain + systemic / pathology gross / urinary bladder / stones
rat [16] = settings: Carcinogenicity, fischer, Oral, Feed, dose end: 103 week, group: systemic
mouse [17] = settings: Carcinogenicity; b6c3f1; Oral; Feed; dose end: 103 week; group: systemic; systemic / pathology gross / urinary bladder / stones + systemic / pathology microscopic / urinary bladder / hyperplasia + systemic / …
rat [18] = settings: Subchronic oral toxicity in rodents, fischer, Feed, dose end: 13 week, group: systemic
rat [19] = settings: Subchronic oral toxicity in rodents, fischer, Feed, dose end: 13 week, group: systemic; remark: listed apart in the source
[20] = systemic / in life observation / body weight / body weight
[21] = systemic / in life observation / body weight / body weight + systemic / organ weight / kidney / absolute + systemic / organ weight / liver…
[22] = systemic / in life observation / body weight / body weight + systemic / in life observation / food consumption / food consumption + systemic…
[23] = systemic / in life observation / body weight / body weight + systemic / in life observation / clinical signs / distended abdomens + systemic…
[24] = systemic / organ weight / kidney / relative to body weight
[25] = systemic / clinical chemistry / albumin / albumin + systemic / clinical chemistry / alkaline phosphatase (alp/alk) / alkaline phosphatase (…
[26] = systemic / clinical chemistry / cholesterol / cholesterol
[27] = systemic / clinical chemistry / alkaline phosphatase (alp/alk) / alkaline phosphatase (alp/alk) + systemic / clinical chemistry / …
[28] = systemic / pathology microscopic / stomach / acanthosis + systemic / pathology microscopic / stomach / hyperplasia + systemic / pathology …
[29] = systemic / pathology microscopic / stomach / acanthosis + systemic / pathology microscopic / stomach / hyperkeratosis
[30] = systemic / pathology microscopic / stomach / acanthosis + systemic / pathology microscopic / stomach / hyperkeratosis + systemic / in life …
[31] = group: developmental, systemic / in life observation / body weight / fetal weight
[32] = group: maternal, systemic / in life observation / body weight / body weight gain + systemic / in life observation / food consumption / food consumption + …
[33] = systemic / organ weight / kidney / relative to body weight + systemic / organ weight / liver / relative to body weight
[34] = systemic / organ weight / kidney / relative to body weight + systemic / organ weight / liver / relative to body weight + systemic / …
[35] = systemic / in life observation / body weight / body weight gain
[36] = systemic / in life observation / body weight / body weight gain + systemic / pathology gross / urinary bladder / stones + systemic / …
[37] = systemic / pathology gross / urinary bladder / stones
[38] = systemic / pathology gross / urinary bladder / stones + systemic / in life observation / body weight / body weight gain + systemic / …
[39] = systemic / in life observation / body weight / body weight gain + systemic / in life observation / food consumption / food consumption + …

Which LOAEL (mouse [1]; [20]) does the source give for `CO/C=C(/C(=O)OC)c1ccccc1Oc1cc(Oc2ccccc2C#N)ncn1` [Azoxystrobin] here?
Its LOAEL is 272 mg/kg/day.

What about the LEL (mouse [1]; [21]) of the same compound?
Its LEL is 272 mg/kg/day.

And the NEL (mouse [1]; [21])?
The NEL was 37.5 mg/kg/day.

And the NOAEL (mouse [1]; [21])?
The NOAEL was 37.5 mg/kg/day.

And the NEL (rat [2]; systemic / clinical chemistry / aspartate aminotransferase (ast/sgot) / aspartate aminotransferase (ast/sgot) + systemic / clinical …)?
The NEL was 117 mg/kg/day.

And the LOAEL (rat [2]; [22])?
The LOAEL was 82.4 mg/kg/day.

What about the NOAEL (rat [2]; [22]) of the same compound?
Its NOAEL is 18.2 mg/kg/day.

And the LOAEL (rat [3]; [23])?
Its LOAEL is 211 mg/kg/day.

And the NOAEL (rat [3]; [23])?
Its NOAEL is 20.4 mg/kg/day.

And the LEL (rat [3]; [24])?
The LEL was 22.4 mg/kg/day.

And the NEL (rat [3]; [24])?
The NEL was less than 22.4 mg/kg/day.

What about the LOAEL (dog [4]; [25]) of the same compound?
The LOAEL was 250 mg/kg/day.

And the NOAEL (dog [4]; [25])?
The NOAEL was 50 mg/kg/day.

And the LEL (dog [4]; [26])?
Its LEL is 10 mg/kg/day.

What about the NEL (dog [4]; [26]) of the same compound?
The NEL was less than 10 mg/kg/day.

What about the LOAEL (dog [5]; [27]) of the same compound?
The LOAEL was 200 mg/kg/day.

What about the NEL (dog [5]; [27]) of the same compound?
The NEL was 3 mg/kg/day.

What about the NOAEL (dog [5]; [27]) of the same compound?
The NOAEL was 25 mg/kg/day.

What about the LEL (dog [5]; systemic / organ weight / liver / absolute + systemic / clinical chemistry / cholesterol / cholesterol + systemic / clinical chemistry / …) of the same compound?
The LEL was 25 mg/kg/day.

With `CC(=O)OC1CC(C)OC(C)O1` (configuration not stated) [Dimethoxane] as the compound, how does the LEL (rat [6]) read?
The LEL was 300 mg/kg/day.

What about the LOAEL (rat [6]) of the same compound?
Its LOAEL is 300 mg/kg/day.

What about the NEL (rat [6]) of the same compound?
The NEL was 100 mg/kg/day.

And the NOAEL (rat [6])?
The NOAEL was 100 mg/kg/day.

What about the LEL (rat [7]; systemic / pathology microscopic / stomach / acanthosis + systemic / pathology microscopic / stomach / hyperkeratosis + systemic / pathology…) of the same compound?
Its LEL is 125 mg/kg/day.

And the LOAEL (rat [7]; [28])?
The LOAEL was greater than 250 mg/kg/day.

What about the NOAEL (rat [7]; [28]) of the same compound?
The NOAEL was no less than 250 mg/kg/day.

And the LEL (mouse [8])?
Its LEL is 500 mg/kg/day.

What about the LOAEL (mouse [8]) of the same compound?
The LOAEL was 500 mg/kg/day.

What about the NEL (mouse [8]) of the same compound?
Its NEL is 250 mg/kg/day.

What about the NOAEL (mouse [8]) of the same compound?
The NOAEL was 250 mg/kg/day.

And the LEL (rat [9])?
Its LEL is 125 mg/kg/day.

What about the LOAEL (rat [9]) of the same compound?
Its LOAEL is 250 mg/kg/day.

And the NEL (rat [9])?
The NEL was less than 125 mg/kg/day.

What about the NOAEL (rat [9]) of the same compound?
The NOAEL was 125 mg/kg/day.

And the LEL (rat [10]; [29])?
The LEL was 62 mg/kg/day.

What about the LOAEL (rat [10]; [29]) of the same compound?
The LOAEL was 250 mg/kg/day.

What about the NEL (rat [10]; [30]) of the same compound?
The NEL was 31 mg/kg/day.

And the NOAEL (rat [10]; [30])?
The NOAEL was 125 mg/kg/day.

What about the LEL (mouse [11]) of the same compound?
The LEL was 250 mg/kg/day.

What about the LOAEL (mouse [11]) of the same compound?
The LOAEL was 250 mg/kg/day.

What about the NEL (mouse [11]) of the same compound?
The NEL was less than 250 mg/kg/day.

And the NOAEL (mouse [11])?
The NOAEL was less than 250 mg/kg/day.

And the LEL (rat [12]; [31])?
Its LEL is 500 mg/kg/day.

What about the LOAEL (rat [12]; [31]) of the same compound?
Its LOAEL is 500 mg/kg/day.

And the NEL (rat [12]; [31])?
The NEL was 250 mg/kg/day.

What about the NOAEL (rat [12]; [31]) of the same compound?
Its NOAEL is 250 mg/kg/day.

And the LOAEL (rat [12]; group: maternal, systemic / in life observation / body weight / body weight gain + systemic / in life observation / food consumption / food consumption)?
The LOAEL was 250 mg/kg/day.

And the LEL (rat [12]; [32])?
The LEL was 250 mg/kg/day.

And the NEL (rat [12]; [32])?
Its NEL is 125 mg/kg/day.

And the NOAEL (rat [12]; [32])?
The NOAEL was 125 mg/kg/day.

And the LEL (mouse [13]; [33])?
The LEL was 31 mg/kg/day.

What about the NEL (mouse [13]; [33]) of the same compound?
Its NEL is less than 31 mg/kg/day.

What about the LOAEL (mouse [13]; [34]) of the same compound?
The LOAEL was greater than 500 mg/kg/day.

What about the NOAEL (mouse [13]; [34]) of the same compound?
Its NOAEL is no less than 500 mg/kg/day.

Which results are given for `Nc1nc(N)nc(N)n1` [Melamine]?
LEL (mouse [14]; [35]): 900 mg/kg/day; NEL (mouse [14]; [35]): < 900 mg/kg/day; LOAEL (mouse [14]; [36]): > 2700 mg/kg/day; NOAEL (mouse [14]; [36]): ≥ 2700 mg/kg/day; LEL (rat [15]): 875 mg/kg/day; LOAEL (rat [15]): > 875 mg/kg/day; NEL (rat [15]): 500 mg/kg/day; NOAEL (rat [15]): ≥ 875 mg/kg/day; LEL (rat [16]; [20]): 112 mg/kg/day; NEL (rat [16]; [20]): < 112 mg/kg/day; LOAEL (rat [16]; systemic / pathology microscopic / kidney / inflammation + systemic / pathology gross / urinary bladder / stones): 225 mg/kg/day; LEL (mouse [17]): 338 mg/kg/day; LOAEL (mouse [17]): 338 mg/kg/day; NEL (mouse [17]): < 338 mg/kg/day; NOAEL (mouse [17]): < 338 mg/kg/day; LEL (rat [18]; [37]): 75 mg/kg/day; LOAEL (rat [18]; [38]): > 600 mg/kg/day; NEL (rat [18]; [38]): 37.5 mg/kg/day; NOAEL (rat [18]; [38]): ≥ 600 mg/kg/day; LOAEL (rat [19]; [39]): > 900 mg/kg/day; NOAEL (rat [19]; [39]): ≥ 900 mg/kg/day; LEL (rat [19]; [37]): 300 mg/kg/day; NEL (rat [19]; [37]): < 300 mg/kg/day
